One test concerns COLO 205 cell line. Nature of the test: Proliferation experiment in COLO 205 cell line (CellTiter-Glo). Format: cell-based. To be noted: Homo sapiens, COLO 205 cells, 72 hours. As for the experimental part: Proliferation experiment in COLO 205 cell line Tissue Culture. Cells were maintained in 10% FBS (Gibco #10099141)/RPMI 1640 (Gibco # A10491). The cells were harvested with 0.25% Trypsin/EDTA (Amresco #9002077), re-suspended in 10% FBS/RPMI 1640 and plated at 8,000 cells per well in 90 ul of media in a 96-well black plate with clear bottoms (Corning #3603). The cells were allowed to incubate overnight in a 37° C., 5% CO2 humidified tissue culture incubator. A 10-point test compound curve was prepared by serial diluting a 10 mM stock 1:3 in DMSO in a 384-well compound plate (costar #3656). The serial diluted compounds were transferred to the plate containing medium for further dilution. The final concentration was from 10 uM to 0.000508 uM. The serial diluted compounds were transferred to the plate containing cells by using a volley ([…]) and the cells were placed back in the incubator for 72 hours. Luminescent detection was carried out with CellTiter-Glo® Luminescent Cell Viability Assay (promega # G7572). Signal was read on TECAN Infinite F200.
A general note: In ATP-based viability assays light output follows the ATP content of the culture.

A further test deals with CDC7/DBF4 (Homo sapiens (Human), UniProt O00311). Put plainly: CDC7 biochemical assay (ADP-Glo, MCM2 substrate). To be noted: ATP 500 uM; MCM2 400 ug/ml; CDC7/DBF4 200 nM; 180 mins at 27° C.; read-out: CDC7 enzyme IC50 (nm). As for the experimental part:
Biochemical Assay Method N-terminal GST-tagged CDC7 and DBF4 full-length proteins were co-expressed by baculovirus insect expression (BV) system and purified by GST affinity column. Used MCM2 protein as substrate, N-terminal His tag MCM2 was expressed by E. coli and purified by His affinity column. Biochemical assay was tested in the U-shaped bottom 384 plate (corning, #4514) with a final volume of […] at 27° C. The concentration of CDC7 was optimized by the enzyme titration experiment. CDC7 kinase was diluted in assay buffer (40 mM Tris.HCl pH 7.25, 100 ug/mL BSA, and 20 mM MgCl2) to get 2.4× enzyme solutions. Compounds were dissolved in 10 mM DMSO, and series diluted in DMSO from 0.3 mM to 0.3 nM (5 concentration pts); All dilutions were diluted 30× in assay buffer to get 6× compounds solutions. MCM2 Substrate and ATP were diluted to 2.4× mixed solution. Add 2 ul test compound solution to 384 assay plate, then add 5 ul substrate/ATP mixed solution, at last add 5 ul enzyme solution, incubate at 27° C. for 180 mins. Transfer 5 ul reaction solution to another 384 assay plate, then add 5 ul ADP-Glo™ Reagent (Promega) to each well and incubate at 27° C. for 40 mins; Add 10 ul Kinase Detection Reagent (Promega) to each well and incubate at 27° C. for 30 mins. 10 uM CDC7-3 compound was used as 100% inhibition while 100% DMSO control was used as 0% inhibition. Each test has three replications at least. The final concentration of the reagents: ATP was 500 uM; MCM2 was 400 ug/ml; CDC7/DBF4 was 200 nM. The data were obtained by TECAN F200 and calculated by GraphPad Prism 5.0; IC50 values were adjusted by Dose-response-Inhibition-Variable slope model.
For orientation: ADP-Glo first removes unused ATP, then detects ADP through luciferase.

SMILES strings stand for the structures. Structures can show the parent of a compound that is named as a salt.

Chain of CDC7/DBF4 (O00311 whole entry): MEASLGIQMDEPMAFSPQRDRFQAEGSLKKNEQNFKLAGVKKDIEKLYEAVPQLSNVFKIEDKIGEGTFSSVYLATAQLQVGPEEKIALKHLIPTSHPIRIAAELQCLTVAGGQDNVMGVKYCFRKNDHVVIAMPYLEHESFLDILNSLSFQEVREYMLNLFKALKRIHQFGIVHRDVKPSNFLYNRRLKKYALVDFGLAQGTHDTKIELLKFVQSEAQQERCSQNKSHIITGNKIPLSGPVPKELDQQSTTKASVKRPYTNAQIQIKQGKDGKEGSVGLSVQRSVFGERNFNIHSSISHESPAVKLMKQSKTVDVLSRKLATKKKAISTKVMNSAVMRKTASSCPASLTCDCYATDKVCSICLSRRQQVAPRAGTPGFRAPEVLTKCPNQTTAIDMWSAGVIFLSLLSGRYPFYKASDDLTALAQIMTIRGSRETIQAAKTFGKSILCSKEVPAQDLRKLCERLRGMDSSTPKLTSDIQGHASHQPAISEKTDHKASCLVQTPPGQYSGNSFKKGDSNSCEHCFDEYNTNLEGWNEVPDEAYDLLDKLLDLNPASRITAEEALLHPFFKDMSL
Chain of CDC7/DBF4 (Q9UBU7 whole entry partner): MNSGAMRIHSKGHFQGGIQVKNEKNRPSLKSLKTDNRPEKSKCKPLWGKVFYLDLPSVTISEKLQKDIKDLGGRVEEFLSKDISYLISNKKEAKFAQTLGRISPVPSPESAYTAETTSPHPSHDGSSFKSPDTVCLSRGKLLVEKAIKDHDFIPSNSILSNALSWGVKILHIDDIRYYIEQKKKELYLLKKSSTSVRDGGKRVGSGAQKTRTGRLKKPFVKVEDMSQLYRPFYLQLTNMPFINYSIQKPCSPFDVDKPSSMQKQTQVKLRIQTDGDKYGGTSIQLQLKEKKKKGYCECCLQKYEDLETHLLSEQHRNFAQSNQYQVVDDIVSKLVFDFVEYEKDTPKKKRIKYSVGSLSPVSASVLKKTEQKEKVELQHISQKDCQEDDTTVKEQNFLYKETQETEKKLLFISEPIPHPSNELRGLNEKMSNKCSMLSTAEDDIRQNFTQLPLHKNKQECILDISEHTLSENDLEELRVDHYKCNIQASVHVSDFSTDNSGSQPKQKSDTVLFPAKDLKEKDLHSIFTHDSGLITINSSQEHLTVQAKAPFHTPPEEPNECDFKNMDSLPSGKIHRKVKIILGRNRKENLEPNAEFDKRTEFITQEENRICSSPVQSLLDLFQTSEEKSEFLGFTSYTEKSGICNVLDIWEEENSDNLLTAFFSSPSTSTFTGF

By GI50 is commonly meant the concentration that inhibits growth by half. `CC(C)[C@H](N)c1nc2cc(-c3ccnc(Cl)c3)sc2c(=O)[nH]1` [Compound 7a, (S)-2-(1-amino-2-methylpropyl)-6-(2-chloropyridin-4-yl)thieno[3,2-d]pyrimidin-4(3H)-one hydrochloride]: the GI50 in the test on COLO 205 cell line lay within 1 to 10 µM.

With `Cc1cc(-c2cc3nc([C@@H](N)C(C)C)[nH]c(=O)c3s2)ccn1` [Compound 7b, (S)-2-(1-amino-2-methylpropyl)-6-(2-methylpyridin-4-yl)thieno[3,2-d]pyrimidin-4(3H)-one hydrochloride], the GI50 in the test with COLO 205 cell line was in the range of 1 to 10 µM.

In general, IC50 refers to the concentration at which inhibition is half-maximal. For the molecule `CC(C)[C@H](N)c1nc2cc(-c3cc[nH]n3)sc2c(=O)[nH]1` [Compound 7c, (S)-2-(1-amino-2-methylpropyl)-6-(1H-pyrazol-3-yl)thieno[3,2-d]pyrimidin-4(3H)-one hydrochloride], at CDC7/DBF4, the IC50 lay in the range of 1 to 10 µM. The molecule also came in with a GI50 with COLO 205 cell line above 10 µM.

With `CC(C)[C@H](N)c1nc2cc(-c3cc(F)ncc3F)sc2c(=O)[nH]1` [Compound 7d, (S)-2-(1-amino-2-methylpropyl)-6-(2,5-difluoropyridin-4-yl)thieno[3,2-d]pyrimidin-4(3H)-one hydrochloride], the IC50 on CDC7/DBF4 was 0.1 to 1 µM. The same molecule registered a GI50 with COLO 205 cell line of 0.1 to 1 µM.

Regarding `CC(C)[C@H](N)c1nc2cc(-c3cnoc3)sc2c(=O)[nH]1` [Compound 7e, (S)-2-(1-amino-2-methylpropyl)-6-(isoxazol-4-yl)thieno[3,2-d]pyrimidin-4(3H)-one hydrochloride], at CDC7/DBF4, the IC50 is above 10 µM. This molecule showed a GI50 in the test with COLO 205 cell line above 10 µM.

For the molecule `CC[C@H](N)c1nc2cc(-c3ccnc(F)c3)sc2c(=O)[nH]1` [Compound 13a, (S)-2-(1-aminopropyl)-6-(2-fluoropyridin-4-yl)thieno[3,2-d]pyrimidin-4(3H)-one hydrochloride], the GI50 with COLO 205 cell line was 0.1 to 1 µM.

`CC[C@H](N)c1nc2cc(-c3ccncc3F)sc2c(=O)[nH]1` [Compound 13b, (S)-2-(1-aminopropyl)-6-(3-fluoropyridin-4-yl)thieno[3,2-d]pyrimidin-4(3H)-one hydrochloride]: the IC50 on CDC7/DBF4 was below 0.1 µM. The molecule also showed a GI50 with COLO 205 cell line below 0.1 µM.

On to `C[C@H](N)c1nc2cc(-c3ccncc3F)sc2c(=O)[nH]1` [Compound 21, (S)-2-(1-aminoethyl)-6-(3-fluoropyridin-4-yl)thieno[3,2-d]pyrimidin-4(3H)-one hydrochloride], for which the IC50 on CDC7/DBF4 is 0.1 to 1 µM. The same molecule registered a GI50 with COLO 205 cell line of 0.1 to 1 µM.

In the case of `N[C@H](c1nc2cc(-c3ccncc3F)sc2c(=O)[nH]1)C1CC1` [Compound 25, (S)-2-(amino(cyclopropyl)methyl)-6-(3-fluoropyridin-4-yl)thieno[3,2-d]pyrimidin-4(3H)-one hydrochloride], the IC50 at CDC7/DBF4 is below 0.1 µM. In the test on COLO 205 cell line, this molecule gave a concentration for 50% growth inhibition (GI50) below 0.1 µM.

`CC(C)[C@@H](N)c1nc2cc(-c3ccncc3F)sc2c(=O)[nH]1` [Compound 29, (R)-2-(1-amino-2-methylpropyl)-6-(3-fluoropyridin-4-yl)thieno[3,2-d]pyrimidin-4(3H)-one hydrochloride]: the IC50 on CDC7/DBF4 lay within 1 to 10 µM. Also, the GI50 in the test on COLO 205 cell line was 1 to 10 µM.

Regarding `CN[C@H](c1nc2cc(-c3ccnc(F)c3)sc2c(=O)[nH]1)C(C)C` [Compound 36, (S)-6-(2-fluoropyridin-4-yl)-2-(2-methyl-1-(methylamino)propyl)thieno[3,2-d]pyrimidin-4(3H)-one hydrochloride], in the test with COLO 205 cell line, the GI50 lay in the range of 1 to 10 µM.

On to `CC(C)(N)c1nc2cc(-c3ccnc(F)c3)sc2c(=O)[nH]1` [Compound 39, 2-(2-aminopropan-2-yl)-6-(2-fluoropyridin-4-yl)thieno[3,2-d]pyrimidin-4(3H)-one hydrochloride], for which, at CDC7/DBF4, the IC50 fell in the range of 1 to 10 µM. Further, the GI50 in the test with COLO 205 cell line lay in the range of 1 to 10 µM.

As for `CC(C)[C@H](N)c1nc2cc(-c3c[nH]cn3)sc2c(=O)[nH]1` [Compound 45, (S)-2-(1-amino-2-methylpropyl)-6-(1H-imidazol-4-yl)thieno[3,2-d]pyrimidin-4(3H)-one hydrochloride], the IC50 on CDC7/DBF4 is above 10 µM. In the test with COLO 205 cell line, this molecule returned a GI50 above 10 µM.

With `CC(C)[C@H](N)c1nc2cc(-c3ccnnc3)sc2c(=O)[nH]1` [Compound 49, (S)-2-(1-amino-2-methylpropyl)-6-(pyridazin-4-yl)thieno[3,2-d]pyrimidin-4(3H)-one hydrochloride], on CDC7/DBF4, the IC50 was 1 to 10 µM. Besides, the GI50 in the test with COLO 205 cell line fell in the range of 1 to 10 µM.

Take `CC(C)[C@H](N)c1nc2cc(-c3ccncn3)sc2c(=O)[nH]1` [Compound 53, (S)-2-(1-amino-2-methylpropyl)-6-(pyrimidin-4-yl)thieno[3,2-d]pyrimidin-4(3H)-one hydrochloride]: the concentration for half-maximal inhibition (IC50) at CDC7/DBF4 is 0.1 to 1 µM. Also, the GI50 with COLO 205 cell line lay within 0.1 to 1 µM.

Regarding `CC(C)[C@H](N)c1nc2cc(-c3cn[nH]n3)sc2c(=O)[nH]1` [Compound 58, (S)-2-(1-amino-2-methylpropyl)-6-(2H-1,2,3-triazol-4-yl)thieno[3,2-d]pyrimidin-4(3H)-one hydrochloride], the IC50 on CDC7/DBF4 was 1 to 10 µM. Moreover, the 50% growth inhibitory concentration (GI50) in the test on COLO 205 cell line was 1 to 10 µM.

On to `CC(C)[C@H](N)c1nc2cc(-c3cc[nH]c3)sc2c(=O)[nH]1` [Compound 65, (S)-2-(1-amino-2-methylpropyl)-6-(1H-pyrrol-3-yl)thieno[3,2-d]pyrimidin-4(3H)-one hydrochloride], for which the concentration for half-maximal inhibition (IC50) on CDC7/DBF4 was above 10 µM. In the test with COLO 205 cell line, the GI50 was above 10 µM.

As to `CC(C)[C@H](N)c1nc2cc(N3CCNCC3)sc2c(=O)[nH]1` [Compound 67, (S)-2-(1-amino-2-methylpropyl)-6-(piperazin-1-yl)thieno[3,2-d]pyrimidin-4(3H)-one hydrochloride], the IC50 on CDC7/DBF4 was 1 to 10 µM. The GI50 in the test with COLO 205 cell line is above 10 µM.

The record behind these values is US10745410B2, “Substituted [5,6]cyclic-4(3H)-pyrimidinones as anticancer agents” (ZENJI RESEARCH LABORATORIES, priority 2017, dated 2020).
